Test results reported in patent US8574563B2 (Bristol-Myers Squibb Company, priority 2006, dated 2013).

The compounds below were run on HCV 1b-377-neo replicon cells (assay: HCV replicon assay, HCV 1b-377-neo replicon cells (1b FRET)). Details: HCV 1b-377-neo replicon cells; HCV 1b genotype.
Type: cell-based, Hepatitis C virus genotype 1b
Procedure, shortened: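 Compounds tested in HCV genotype 1b-377-neo replicon cells with a FRET read-out. Cells resistant to a reference NS5A inhibitor through a Y2065H NS5A mutation were run alongside wild-type cells.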

In the case of `COC(=O)N[C@H](C(=O)N1CCC[C@H]1c1ncc(-c2ccc(-c3ccc(-c4cnc([C@@H]5CCCN5C(=O)[C@@H](NC(=O)OC)C(C)C)[nH]4)cc3C(=O)O)cc2)[nH]1)C(C)C` [Example M114, 4,4′-bis(2-((2S)-1-(N-(methoxycarbonyl)-L-valyl)-2-pyrrolidinyl)-1H-imidazol-5-yl)-2-biphenylcarboxylic acid], the “EC50 range against HCV 1b (Table 2, Range)” value is reported as “>A”.

Same assay, conditions: Hepatitis C virus, HCV 1b-377-neo replicon cells; HCV 1b genotype; read-out: EC50 range against HCV 1b (Table 2, Range)

`C[C@@H](c1ncc(-c2ccc(-c3ncc(-c4cnc([C@@H]5CCCN5C(=O)[C@@H](c5ccccc5)N5CCCCC5)[nH]4)cn3)cc2)[nH]1)N(C)C(=O)[C@@H](c1ccccc1)N1CCCCC1` [Example 152j-6, (2R)-N-methyl-2-phenyl-N-((1S)-1-(4-(4-(5-(2-((2S)-1-((2R)-2-phenyl-2-(1-piperidinyl)acetyl)-2-pyrrolidinyl)-1H-imidazol-5-yl)-2-pyrimidinyl)phenyl)-1H-imidazol-2-yl)ethyl)-2-(1-piperidinyl)acetamide] and `COC(=O)N[C@@H](C(=O)N1CCC[C@H]1c1ncc(-c2ccc(-c3ncc(-c4cnc([C@@H]5CCCN5C(=O)[C@@H](c5ccccc5)N5CCCCC5)[nH]4)cn3)cc2)[nH]1)c1ccccc1` [Example 152l-3] fall in the same range of EC50: 0.001 to 0.999 nM for the first, 0.001 to 0.999 nM for the second.

`COC(=O)N[C@@H](C(=O)N[C@@H](C)c1ncc(-c2ccc(-c3ccc(-c4cnc([C@H](C)NC(=O)[C@H](NC(=O)OC)c5ccccc5)[nH]4)cn3)cc2)[nH]1)c1ccccc1` [Example 152j-23, methyl ((1R)-2-(((1S)-1-(5-(6-(4-(2-((1S)-1-(((2R)-2-((methoxycarbonyl)amino)-2-phenylacetyl)amino)ethyl)-1H-imidazol-5-yl)phenyl)-3-pyridinyl)-1H-imidazol-2-yl)ethyl)amino)-2-oxo-1-phenylethyl)carbamate] and `COC(=O)N[C@@H](C(=O)N1CCC[C@H]1c1ncc(-c2ccc(-c3ccc(-c4cnc([C@@H]5CCCN5C(=O)[C@H](NC(=O)OC)c5ccccc5)[nH]4)cn3)nc2)[nH]1)c1ccccc1` [Example 145, dimethyl (2,2′-bipyridine-5,5′-diylbis(1H-imidazole-5,2-diyl(2S)-2,1-pyrrolidinediyl((1R)-2-oxo-1-phenyl-2,1-ethanediyl)))biscarbamate] fall in the same range of EC50: 0.001 to 0.999 nM for the first, 0.001 to 0.999 nM for the second.

`COC(=O)N[C@@H](C(=O)N1CCC[C@H]1c1ncc(-c2ccc(-c3ccc(-c4cnc([C@@H]5CCCN5C(=O)CCN(C)C)[nH]4)cc3)cc2)[nH]1)c1ccccc1` [Example 84-15, methyl ((1R)-2-((2S)-2-(5-(4′-(2-((2S)-1-(N,N-dimethyl-beta-alanyl)-2-pyrrolidinyl)-1H-imidazol-5-yl)-4-biphenylyl)-1H-imidazol-2-yl)-1-pyrrolidinyl)-2-oxo-1-phenylethyl)carbamate] and `COC(=O)N[C@@H](C(=O)N1CCC[C@H]1c1ncc(-c2ccc(-c3ccc(-c4cnc([C@@H]5CCCN5C(=O)CN)[nH]4)cc3)cc2)[nH]1)c1ccccc1` [Example 30, methyl ((1R)-2-((2S)-2-(5-(4′-(2-((2S)-1-glycyl-2-pyrrolidinyl)-1H-imidazol-5-yl)-4-biphenylyl)-1H-imidazol-2-yl)-1-pyrrolidinyl)-2-oxo-1-phenylethyl)carbamate] fall in the same range of EC50: 1 to 99 nM for the first, 1 to 99 nM for the second.

`COC(=O)N[C@@H](C(=O)N1CCC[C@H]1c1ncc(-c2ccc(-c3ccc(-c4cnc([C@@H]5CCCN5C(=O)C(=O)N(C)C)[nH]4)cc3)cc2)[nH]1)c1ccccc1` [Example 73, methyl ((1R)-2-((2S)-2-(5-(4′-(2-((2S)-1-((dimethylamino)(oxo)acetyl)-2-pyrrolidinyl)-1H-imidazol-5-yl)-4-biphenylyl)-1H-imidazol-2-yl)-1-pyrrolidinyl)-2-oxo-1-phenylethyl)carbamate] and `COC(=O)N[C@@H](C(=O)N1CCC[C@H]1c1ncc(-c2ccc(-c3ccc(-c4cnc([C@@H]5CCCN5C(=O)[C@@H](c5ccccc5)N5CCCCC5)[nH]4)cc3)cc2)[nH]1)c1ccccc1` [Example 84-1, methyl ((1R)-2-oxo-1-phenyl-2-((2S)-2-(5-(4′-(2-((2S)-1-((2R)-2-phenyl-2-(1-piperidinyl)acetyl)-2-pyrrolidinyl)-1H-imidazol-5-yl)-4-biphenylyl)-1H-imidazol-2-yl)-1-pyrrolidinyl)ethyl)carbamate] fall in the same range of EC50: 0.001 to 0.999 nM for the first, 0.001 to 0.999 nM for the second.

First: COC(=O)N[C@@H](C)C(=O)N1[C@@H](C)CC[C@H]1c1nc(-c2ccc(-c3ccc(-c4c[nH]c([C@@H]5CC[C@H](C)N5C(=O)[C@H](C)NC(=O)OC)n4)cc3)cc2)c[nH]1 [Example M157, methyl ((1S)-2-((2S,5S)-2-(4-(4′-(2-((2S,5S)-1-(N-(methoxycarbonyl)-L-alanyl)-5-methyl-2-pyrrolidinyl)-1H-imidazol-4-yl)-4-biphenylyl)-1H-imidazol-2-yl)-5-methyl-1-pyrrolidinyl)-1-methyl-2-oxoethyl)carbamate]
Second: CC(C)[C@H](O)C(=O)N[C@@H](C)C(=O)N1CCC[C@H]1c1nc(-c2ccc(-c3ccc(-c4cnc([C@@H]5CCCN5C(=O)[C@H](C)NC(=O)[C@@H](O)C(C)C)[nH]4)cc3)cc2)c[nH]1 [Example F22, (2S)-2-hydroxy-N-((1S)-2-((2S)-2-(5-(4′-(2-((2S)-1-(N-((2S)-2-hydroxy-3-methylbutanoyl)-L-alanyl)-2-pyrrolidinyl)-1H-imidazol-4-yl)-4-biphenylyl)-1H-imidazol-2-yl)-1-pyrrolidinyl)-1-methyl-2-oxoethyl)-3-methylbutanamide]
The EC50 of the first is lower: 0.001 to 0.999 nM for the first, 100 to 999 nM for the second. The first is the more potent here.

`COC(=O)N[C@@H](C(=O)N1CCC[C@H]1c1ncc(-c2ccc(-c3ccc(-c4cnc([C@@H]5CCCN5C(=O)Cc5cccnc5)[nH]4)cn3)cc2)[nH]1)c1ccccc1` [Example 143, methyl ((1R)-2-oxo-1-phenyl-2-((2S)-2-(5-(4-(5-(2-((2S)-1-(3-pyridinylacetyl)-2-pyrrolidinyl)-1H-imidazol-5-yl)-2-pyridinyl)phenyl)-1H-imidazol-2-yl)-1-pyrrolidinyl)ethyl)carbamate] and `CCN(CC)[C@@H](C(=O)N1CCC[C@H]1c1ncc(-c2ccc(-c3ccc(-c4cnc([C@@H]5CCCN5C(=O)[C@@H](NC(=O)OC)C5CCOCC5)[nH]4)cc3)cc2)[nH]1)c1ccccc1` [LS14, methyl ((1S)-2-((2S)-2-(5-(4′-(2-((2S)-1-((2R)-2-(diethylamino)-2-phenylacetyl)-2-pyrrolidinyl)-1H-imidazol-5-yl)-4-biphenylyl)-1H-imidazol-2-yl)-1-pyrrolidinyl)-2-oxo-1-(tetrahydro-2H-pyran-4-yl)ethyl)carbamate] fall in the same range of EC50: 0.001 to 0.999 nM for the first, 0.001 to 0.999 nM for the second.

`CCC(C)[C@@H](C(=O)N1CCC[C@H]1c1nc(-c2ccc(-c3ccc(-c4cnc([C@@H]5CCCN5C(=O)[C@H](C(C)CC)N(C)C(=O)OC(C)(C)C)[nH]4)cc3)cc2)c[nH]1)N(C)C(=O)OC(C)(C)C` (stereo partly drawn) [Example F29, tert-butyl ((1S)-1-(((2S)-2-(5-(4′-(2-((2S)-1-((2S)-2-((tert-butoxycarbonyl)(methyl)amino)-3-methylpentanoyl)-2-pyrrolidinyl)-1H-imidazol-4-yl)-4-biphenylyl)-1H-imidazol-2-yl)-1-pyrrolidinyl)carbonyl)-2-methylbutyl)methylcarbamate] and `CCCN(CCC)[C@@H](C)C(=O)N1CCC[C@H]1c1ncc(-c2ccc(-c3ccc(-c4cnc([C@@H]5CCCN5C(=O)[C@@H](c5ccccc5)N(CC)CC)[nH]4)cc3)cc2)[nH]1` [Example M43, N-((1S)-2-((2S)-2-(5-(4′-(2-((2S)-1-((2R)-2-(diethylamino)-2-phenylacetyl)-2-pyrrolidinyl)-1H-imidazol-5-yl)-4-biphenylyl)-1H-imidazol-2-yl)-1-pyrrolidinyl)-1-methyl-2-oxoethyl)-N-propyl-1-propanamine] fall in the same range of EC50: 1 to 99 nM for the first, 1 to 99 nM for the second.

First: COC(=O)N[C@@H](C(=O)N1CCC[C@H]1c1ncc(-c2ccc(-c3ccc(-c4cnc([C@@H]5CCCN5C(=O)[C@H](NC(=O)OC)c5ccccc5)[nH]4)nn3)nn2)[nH]1)c1ccccc1 [Example 153c-2, dimethyl (3,3′-bipyridazine-6,6′-diylbis(1H-imidazole-5,2-diyl(2S)-2,1-pyrrolidinediyl((1R)-2-oxo-1-phenyl-2,1-ethanediyl)))biscarbamate]
Second: COC(=O)N[C@H](C(=O)N1CCC[C@H]1c1nc(-c2cnc(-c3ccc(-c4cnc([C@@H]5CCCN5C(=O)[C@@H](NC(=O)OC)C(C)C)[nH]4)c(F)c3)nc2)c[nH]1)C(C)C [Example D68, methyl ((1S)-1-(((2S)-2-(5-(2-fluoro-4-(5-(2-((2S)-1-((2S)-((methoxycarbonyl)amino)-3-methylbutanoyl)-2-pyrrolidinyl)-1H-imidazol-5-yl)-2-pyrimidinyl)phenyl)-1H-imidazol-2-yl)-1-pyrrolidinyl)carbonyl)-2-methylpropyl) carbamate]
The EC50 of the first is higher: 1 to 99 nM for the first, 0.001 to 0.999 nM for the second. The second is the more potent here.

`O=C1CN(C(C(=O)N2CCC[C@H]2c2ncc(-c3ccc(-c4ccc(-c5c[nH]c([C@@H]6CCCN6C(=O)[C@H]6CCCO6)n5)cc4)cc3)[nH]2)c2ccccc2)CCN1` (stereo partly drawn) [Example 103-8, 4-(2-oxo-1-phenyl-2-((2S)-2-(5-(4′-(2-((2S)-1-((2R)-tetrahydro-2-furanylcarbonyl)-2-pyrrolidinyl)-1H-imidazol-4-yl)-4-biphenylyl)-1H-imidazol-2-yl)-1-pyrrolidinyl)ethyl)-2-piperazinone] and `CCN(CC)[C@@H](C(=O)N1CCC[C@H]1c1ncc(-c2ccc(-c3ccc(-c4[nH]c([C@@H]5CCCN5C(=O)[C@@H](c5ccccc5)N(CC)CC)nc4C(F)(F)F)cc3)cc2)[nH]1)c1ccccc1` [Example J40] fall in the same range of EC50: 0.001 to 0.999 nM for the first, 0.001 to 0.999 nM for the second.

In the case of `COC(=O)NCC(=O)N1[C@H](c2ncc(-c3ccc(-c4ccc(-c5cnc([C@@H]6C[C@@H]7C[C@@H]7N6C(=O)CNC(=O)OC)[nH]5)cc4)cc3)[nH]2)C[C@@H]2C[C@@H]21` [Example M129, methyl (2-((1S,3S,5S)-3-(5-(4′-(2-((1S,3S,5S)-2-(((methoxycarbonyl)amino)acetyl)-2-azabicyclo[3.1.0]hex-3-yl)-1H-imidazol-5-yl)-4-biphenylyl)-1H-imidazol-2-yl)-2-azabicyclo[3.1.0]hex-2-yl)-2-oxoethyl)carbamate], the EC50 is reported as 1000 to 10000 nM.
